Experimental data published in US20070027201A1 (Wyeth, priority 2005, published 2007).

Assays:
progesterone receptor [1] = target: T1, progesterone receptor (Homo sapiens, UniProt P06401); assay: T47D alkaline phosphatase assay for progesterone receptor modulator (antagonist) activity; type: cell-based; parameters: Frozen T47D cells are thawed in a 37° C. water bath and diluted to 280,000 cells/mL in culture medium; endogenous in cells; host or cells: T47D cells; settings: T47D cells, antagonist mode in the presence of 1 nM progesterone, 24 hours
T1 sequence (P06401 1-933): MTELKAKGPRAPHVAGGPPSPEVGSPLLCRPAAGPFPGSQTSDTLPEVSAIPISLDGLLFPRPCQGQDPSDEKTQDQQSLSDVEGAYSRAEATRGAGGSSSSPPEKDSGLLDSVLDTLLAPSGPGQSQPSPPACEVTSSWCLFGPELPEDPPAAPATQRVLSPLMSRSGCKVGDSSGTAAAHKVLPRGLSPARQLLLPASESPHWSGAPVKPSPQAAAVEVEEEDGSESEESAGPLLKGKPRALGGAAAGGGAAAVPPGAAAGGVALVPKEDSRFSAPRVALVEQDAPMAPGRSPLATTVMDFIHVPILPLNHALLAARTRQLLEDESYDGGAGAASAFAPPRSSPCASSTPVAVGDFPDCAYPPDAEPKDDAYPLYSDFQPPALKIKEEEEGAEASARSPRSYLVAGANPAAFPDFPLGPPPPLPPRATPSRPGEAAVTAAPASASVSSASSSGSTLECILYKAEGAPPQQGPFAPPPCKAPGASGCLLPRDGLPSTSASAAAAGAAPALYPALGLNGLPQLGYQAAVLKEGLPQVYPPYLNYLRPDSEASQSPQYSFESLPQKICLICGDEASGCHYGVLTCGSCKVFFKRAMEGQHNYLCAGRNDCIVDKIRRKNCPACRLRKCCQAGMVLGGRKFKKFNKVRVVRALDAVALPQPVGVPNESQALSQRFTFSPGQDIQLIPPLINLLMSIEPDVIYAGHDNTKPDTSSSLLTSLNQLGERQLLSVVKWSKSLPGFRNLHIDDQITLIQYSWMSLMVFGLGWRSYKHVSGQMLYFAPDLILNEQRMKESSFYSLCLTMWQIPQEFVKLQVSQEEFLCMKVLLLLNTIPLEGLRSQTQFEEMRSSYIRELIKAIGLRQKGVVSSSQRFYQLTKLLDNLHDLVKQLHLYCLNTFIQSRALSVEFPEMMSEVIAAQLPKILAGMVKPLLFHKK
Description: (§1) An assay was performed to identify compounds having progesterone receptor modulator activity. This assay identifies progestins or antiprogestins by determining a compound's effect on alkaline phosphatase activity in T47D cells.
(§2) Culture medium: DMEM:F12 (1:1) (GIBCO, BRL) supplemented with 5% (v/v) charcoal stripped fetal bovine serum (not heat-inactivated), 100 U/mL penicillin, 100 μg/mL streptomycin, and 2 mM the GlutaMax® reagent (GIBCO, BRL).
(§3) Alkaline phosphatase assay buffer: • I. 0.1M Tris-HCl, pH 9.8, containing 0.2% the Triton™ X-100 reagent • II. 0.1M Tris-HCl, pH 9.8, containing 4 mM p-nitrophenyl phosphate (Sigma).
(§4) Frozen T47D cells are thawed in a 37° C. water bath and diluted to 280,000 cells/mL in culture medium. To each well in a 96-well plate (Falcon, Becton Dickinson Labware), 180 μL of diluted cell suspension is added.
Twenty μL of reference or test compounds diluted in the culture medium is then added to each well. When testing for progestin antagonist activity, reference antiprogestins or test compounds are added in the presence of 1 nM progesterone. […]
Analysis of dose-response data. […] EC50 or IC50 values are calculated from the retransformed values. […]
Progesterone and trimegestone are reference progestins and RU486 is the reference antiprogestin. All reference compounds are run in full dose response curves and the EC50 and IC50 values are calculated. […]

progesterone receptor [2] = target: T1, progesterone receptor; assay: as above; type: cell-based; parameters: endogenous in cells; host or cells: T47D cells; settings: T47D cells, antagonist mode in the presence of 1 nM progesterone, 24 hours
Description: as §1, §2, §3, §4
Twenty μL of reference or test compounds diluted in the culture medium is then added to each well. When testing for progestin antagonist activity, reference antiprogestins or test compounds are added in the presence of 1 nM progesterone. The cells are incubated at 37° C. in a 5% CO2/humidified atmosphere for 24 hours.
For high throughput screening, one concentration of each compound will be tested at 0.3 μg/mL. Based on an average molecular weight of 300 g/mol for the compounds in the library, the concentration is approximately 1 μM. Subsequently, active compounds will be tested in dose response assays to determine EC50 and IC50.
At the end of treatment, the medium is removed from the plate. Fifty μL of assay buffer I is added to each well. The plates are shaken in a titer plate shaker for 15 minutes. Then 150 μL of assay buffer II is added to each well. Optical density measurements are taken at 5 minute intervals for 30 minutes at a test wavelength of 405 nm.
Analysis of dose-response data. For reference and test compounds, a dose response curve is generated for dose (x-axis) vs. the rate of enzyme reaction (slope) (y-axis). Square root-transformed data are used for analysis of variance and nonlinear dose response curve fitting for both agonist and antagonist modes. Huber weighting is used to down-weight the effects of outliers. EC50 or IC50 values are calculated from the retransformed values. The JMP® software (SAS Institute, Inc.) is used for both one-way analysis of variance and non-linear dose response analysis in both single dose and dose response studies.
Progesterone and trimegestone are reference progestins and RU486 is the reference antiprogestin. All reference compounds are run in full dose response curves and the EC50 and IC50 values are calculated.
In the table provided above, the IC50 values show the relative progesterone receptor antagonist activity in this assay. Lower numbers are indicative of higher potency, i.e., greater PR antagonist activity. Further, the assay has a standard deviation of about ±6.

IC50 (progesterone receptor [2]) [nM] | SMILES | IC50 (progesterone receptor [1]) [nM]
– | CN(C#N)c1ccc(-c2ccc(C#N)n2C)cc1 [Example 38] | 88.2
29.9 | CCS(=O)(=O)Nc1ccc(-c2ccc(C#N)n2C)cc1F [Example 27, N-[4-(5-cyano-1-methyl-1H-pyrrol-2-yl)-2-fluorophenyl]ethane-sulfonamide] | –
897 | Cn1c(C#N)ccc1-c1ccc(NC#N)c(Cl)c1 [Example 33, [2-chloro-4-(5-cyano-1-methyl-1H-pyrrol-2-yl)phenyl]cyanamide] | –
721 | CCCn1c(C#N)ccc1-c1ccc(NS(=O)(=O)CC)cc1 [Example 67, N-[4-(5-cyano-1-propyl-1H-pyrrol-2-yl)phenyl]ethanesulfonamide] | –
53.7 | CCCCS(=O)(=O)Nc1ccc(-c2ccc(C#N)n2C)c(C(F)(F)F)c1 [Example 55, N-[4-(5-cyano-1-methyl-1H-pyrrol-2-yl)-3-(trifluoromethyl)phenyl]butane-1-sulfonamide] | –
